The source of these data is PubChem BioAssay (NCI).

Test systems include CAKI-1 renal; HT29 colon; SN12C renal; OVCAR-4 ovarian; T-47D breast; SNB-75 CNS; COLO 205 colon; A498 renal; HS 578T breast; SR leukemia.
Holding throughout (test): NCI-60 cell line screen, 48 h

Each structure is given as a SMILES string.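 The compound was tested at five concentrations on cells cultured in 96-well plates, with a 48-hour exposure period. At the GI50, growth is halved. TGI: total growth inhibition.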

As to `O=C(CCc1ccccc1)ON1C(=S)C(c2ccccc2)(c2ccccc2)N=C1Sc1ccccc1`, the TGI in the experiment with CAKI-1 renal, in the experiment on HT29 colon, in the experiment on SN12C renal, in the experiment with OVCAR-4 ovarian, in the experiment on T-47D breast and with SNB-75 CNS was over 100 µM each time. Besides, the TGI with COLO 205 colon, with A498 renal and in the experiment with HS 578T breast was over 100 µM in each case.
Turning to `O=C1C(CN2CCOCC2)CCCC1CN1CCOCC1` (stereo unspecified), the TGI was 1.57 µM in the experiment with CAKI-1 renal; 4.16 µM in the experiment on HT29 colon; 7.71 µM in the experiment on SN12C renal; 5.44 µM with OVCAR-4 ovarian; over 100 µM in the experiment on SR leukemia; 29.9 µM in the experiment with SNB-75 CNS. The TGI was 6.21 µM in the experiment on COLO 205 colon, 42.3 µM in the experiment with A498 renal and 75.9 µM in the experiment on HS 578T breast.
On to `CC(=O)[CH-]C(=O)c1ccccc1.CC(=O)[CH-]C(=O)c1ccccc1.C[C@]12CCC(=O)C=C1CC[C@@H]1C2CC[C@@]2(C)C1CC[C@]2(C)[O-].C[C@]12CCC(=O)C=C1CC[C@@H]1C2CC[C@@]2(C)C1CC[C@]2(C)[O-].Cl.[Ti+4]` (stereo partly specified), for which the GI50 in the experiment on CAKI-1 renal is 13.3 µM; in the experiment on HT29 colon, 16.3 µM; in the experiment on SN12C renal, 18.7 µM; in the experiment on OVCAR-4 ovarian, 42.7 µM; with SNB-75 CNS, 15.7 µM; in the experiment on COLO 205 colon, 37.6 µM. Further, in the experiment with A498 renal, the GI50 is 15.3 µM. Moreover, the TGI was 38.4 µM in the experiment on CAKI-1 renal; 76 µM in the experiment with HT29 colon; 49.5 µM in the experiment with SN12C renal; over 100 µM with OVCAR-4 ovarian; 43.7 µM in the experiment with SNB-75 CNS; over 100 µM with COLO 205 colon. In addition, in the experiment with A498 renal, the TGI was found to be 31.1 µM.
With `Cc1cc(=O)[nH]c(NN2C(Cl)C(=O)C2c2cccc(Cl)c2)n1` (stereo unspecified), the TGI amounted to 76.8 µM in the experiment on HT29 colon; 62 µM with SN12C renal; 97 µM with OVCAR-4 ovarian; 44.3 µM in the experiment with SR leukemia; 62.8 µM in the experiment on SNB-75 CNS.
As to `COc1cc(C2c3cc4c(cc3OC(N3CCNCC3)C2C)OCO4)cc(OC)c1OC` (stereo unspecified), the TGI is 4.29 µM in the experiment on CAKI-1 renal; 7.54 µM in the experiment on HT29 colon; over 53.2 µM in the experiment with SN12C renal; 21.6 µM with OVCAR-4 ovarian; over 100 µM in the experiment on T-47D breast; 3.88 µM in the experiment on SR leukemia. Moreover, the TGI in the experiment with COLO 205 colon was found to be 2 µM; in the experiment with A498 renal it was 52.1 µM; in the experiment with HS 578T breast, 3.35 µM.
On to `CCOC(=O)C1=COC(C)(CCc2ccccc2)CC1=O` (stereo unspecified), for which the TGI with CAKI-1 renal, with HT29 colon, in the experiment on SN12C renal, with OVCAR-4 ovarian, with T-47D breast and in the experiment on SNB-75 CNS was over 100 µM in each case. The TGI in the experiment on COLO 205 colon, in the experiment on A498 renal and with HS 578T breast was over 100 µM throughout.
For the compound `COc1ccc(C(OCC2OC(n3ccc(NC(=O)c4ccccc4)nc3=O)CC2OP2(=S)SCCS2)(c2ccccc2)c2ccc(OC)cc2)cc1` (stereo unspecified), the TGI with HT29 colon is 69.7 µM; with SN12C renal, 58.6 µM; in the experiment with OVCAR-4 ovarian it was 68.6 µM; in the experiment with T-47D breast it was over 100 µM; in the experiment with SR leukemia it was over 100 µM; in the experiment on SNB-75 CNS, 46.6 µM. Besides, the TGI is over 10 µM in the experiment with COLO 205 colon and 76.3 µM in the experiment with HS 578T breast.
As for `CC(C)(C)OC(=O)NCCCCC(NC(=O)c1ccccc1)C(N)=O` (stereo unspecified), the TGI in the experiment on CAKI-1 renal, with HT29 colon, in the experiment on SN12C renal, in the experiment with OVCAR-4 ovarian, in the experiment on T-47D breast and in the experiment with SNB-75 CNS was over 100 µM in each case. For the same compound, the TGI with COLO 205 colon, in the experiment on A498 renal and with HS 578T breast was over 100 µM throughout.
Take `CCOC(=O)Oc1ccc2c(c1)c(=O)c1c(NCCN(CC)CC)ccc3nnn2c31`: the TGI in the experiment with CAKI-1 renal is 2.63 µM; in the experiment on HT29 colon, 11.7 µM; with SN12C renal, 15.1 µM; in the experiment on OVCAR-4 ovarian it was 11.9 µM; with T-47D breast, 29.2 µM; in the experiment with SR leukemia it was 12.9 µM. For the same compound, the TGI with COLO 205 colon came to 14.9 µM; in the experiment on A498 renal, 21.5 µM; in the experiment with HS 578T breast, 22.9 µM.
Take `CC(C)(C)N(Cc1ccc2c(c1)OCO2)C(=O)/C=C\Sc1ccccc1`: the TGI with CAKI-1 renal, with HT29 colon, in the experiment on SN12C renal, with OVCAR-4 ovarian, in the experiment with T-47D breast and with SR leukemia was over 100 µM throughout. In addition, the TGI with COLO 205 colon and with A498 renal was over 100 µM throughout.
For the compound `NC(Cc1ccc(S(=O)(=O)O)cc1)C(=O)NC(Cc1ccc(S(=O)(=O)O)cc1)C(=O)O` (stereo unspecified), the TGI in the experiment with CAKI-1 renal, in the experiment with HT29 colon, in the experiment with SN12C renal, in the experiment on OVCAR-4 ovarian, in the experiment on T-47D breast and in the experiment with SNB-75 CNS was over 100 µM throughout. The TGI in the experiment on COLO 205 colon, with A498 renal and with HS 578T breast was over 100 µM in each case.
For the compound `COc1ccc2oc(=O)c(-c3csc(C)n3)cc2c1`, the TGI with CAKI-1 renal is over 100 µM; in the experiment on HT29 colon, over 100 µM; in the experiment with SN12C renal, over 100 µM; in the experiment with OVCAR-4 ovarian, over 100 µM; with SR leukemia it was over 100 µM; in the experiment on SNB-75 CNS it was 55.6 µM. Further, the TGI was over 100 µM with COLO 205 colon and 79.3 µM in the experiment on HS 578T breast.
Consider `COc1cc(C2c3cc4c(cc3OC(NCCO)C2C)OCO4)cc(OC)c1OC` (stereo unspecified), for which the TGI in the experiment on CAKI-1 renal is over 54.3 µM; in the experiment with HT29 colon, 21.4 µM; with SN12C renal, over 100 µM; in the experiment with OVCAR-4 ovarian it was over 100 µM; in the experiment on T-47D breast, over 100 µM; in the experiment on SNB-75 CNS it was over 71.7 µM. The TGI with COLO 205 colon was 12.3 µM; in the experiment on A498 renal, 2.81 µM; with HS 578T breast, over 100 µM.
Consider `Clc1ccc(OCc2nn3c(CCc4nnc5sc(COc6ccc(Cl)cc6)nn45)nnc3s2)cc1`, for which the TGI in the experiment on CAKI-1 renal was 12.8 µM; in the experiment on HT29 colon, over 100 µM; in the experiment on OVCAR-4 ovarian, 57.7 µM; in the experiment on T-47D breast, over 100 µM; in the experiment on A498 renal, 42.8 µM; with HS 578T breast, over 100 µM.
